Reference: US20250011319A1, “SUBSTITUTED 1H-PYRAZOLO [4,3-c] QUINOLINES, METHODS OF PREPARATION, AND USE THEREOF” (Lomond Therapeutics, Inc., priority 2021, published 2025)
Like-named read-outs stand apart in the source and are kept apart here.

Key:
recombinant HPK1 protein = recombinant HPK1 protein (Homo sapiens (Human), UniProt Q92918); test: Primary HPK1 enzymatic inhibition (ADP-Glo luminescence); type: biochemical; conditions: recombinant HPK1, MBP substrate, 1 hour at room temperature
Procedure: Example A. Primary Assay used to determine potency of HPK1 enzymatic activity inhibition. Compound activity was determined using recombinant HPK1 protein and MBP Substrate (both Promega, Cat #V6398) in an in vitro enzymatic reaction. The enzymatic assay used to determine activity was a Luminescence assay using a Microplate Reader ClarioStar Plus. The enzymatic reaction was carried out in assay buffer (40 mM TRIS-HCl pH 7.4-7.6, 20 mM MgCl2, 0.05 mM DTT, 0.1 mg/ml BSA). The compounds were dispensed on a 384 well Diamond Well Plate (Axigen, Cat #P-384-120SQ-C—S) using the Biomek FX liquid handling system at 100× solutions of compounds in DMSO. 2×HPK1-MBP mix (final concentration 0.64 ng/μl of HPK1 and 45 ng/μl of MBP) was prepared in 1× Assay buffer and 5.5 μl of mixture per well was added into 384 w white Reaction plate with NBS (Corning, Cat #4513). 5.5 μl of MBP substrate w/o HPK1 in 1× buffer was used for negative control. Plates were centrifuged for 1 min at 100 g. Next step the Compounds were added to Reaction plate using Biomek station via following steps: 1l of 100× compounds (in DMSO) were mixed thoroughly with 49 ul of 2×10 uM ATP in Assay Buffer, then 5.5 μl of this mixture was added to Reaction plate with 5.5 μl of HPK1-MBP mix. Plates were centrifuged for 1 min at 100 g and incubated for 1 hour at room temperature. Next 3 μL of ADP-Glo reagent (Promega, ADP-Glo™ Kinase Assay, Cat #V9102) per well was added. Plates were incubated for 30 minutes at room temperature. Then 6 μL of Kinase detection reagent (Promega, ADP-Glo™ Kinase Assay, Cat #V9102) per well was added and the Luminescence was measured using Microplate Reader. The % inhibition was then used to calculate the IC50 values.

MOLM-13 = MOLM-13 Cytotoxicity Assay; type: cell-based; conditions: Homo sapiens
Procedure: Example C. MOLM-13 Cytotoxicity Assay. Assay was performed according the procedure described in O. A. Elgamal et al. J. Hematol. Oncol. 2020, 13, 8 (https://doi.org/10.1186/s13045-019-0821-7).

MV4-11 cell lines = test: MV4-11 Cytotoxicity Assay (CellTiter-Glo); type: cell-based; conditions: Homo sapiens, read-out: MV4-11, CC50
Procedure: Example B. MV4-11 Cytotoxicity Assay. CC50 was determined using MV4-11 cell lines in RPMI-1640 culture medium (PanEco cat #C363). Compounds were prepared as 200× stocks with serial dilution in 100% DMSO with a final concentration of 1×. Dispersed 40 μL in 384-well plates at a concentration of 4000 cells per well using a robotic station Biomek (Beckman). Before adding compounds, the cells were incubated at 37° C. A dilution plate was prepared by pouring 78 μl of the appropriate culture medium using a robotic station Biomek (Beckman). Sequentially, using a robotic station, 2 μl of substances were taken and added to 78 μl of culture medium (dilution of compounds 40×). Took from there 10 μl and added to the plates to the cells (dilution of compounds 5×). The plates were incubated for 3 days at a temperature 37° C. After 3 days, 10 μl of CellTiter-Glo (Promega) was added to the cells and the luminescence was measured.

FLT3 (wt) = FLT3 (wt) (Homo sapiens (Human), UniProt P36888); test: FLT3 kinase radiometric HotSpot assay, FLT3 (wt); type: biochemical
Procedure: (§1) Example D. FLT3 inhibitory activity and cytotoxicity. This assay was used to determine potency of FLT3 enzymatic activity inhibition. Corresponding biochemical inhibition of enzymatic activities of FLT3 (wt), FLT3 (D835Y), and FLT3 (ITD) were measured using recombinant protein constructs of kinase domains via activity based FLT3 kinase assay for compound screening and profiling via radiometric HotSpot™ kinase assay (Reaction Biology). Peptide substrate [[…]]. Compounds were dissolved to 10 mM in DMSO. Compounds were tested in 10-dose IC50 mode with a 3-fold serial dilution starting at 0.3 μM. […] Reactions were carried out at 1 μM ATP. The estimated Ki values were calculated by using the formula presented below, which is applicable for ATP competitive inhibitors: Ki=IC50/(1+[S]/Km). […] In Table E shown HEK293 cytotoxicity.

FLT3 (ITD) = FLT3 (ITD) (Homo sapiens, UniProt P36888, ITD); test: FLT3 kinase radiometric HotSpot assay, FLT3 (ITD); type: biochemical
FLT3 (D835Y) = FLT3 (D835Y) (Homo sapiens (Human), UniProt P36888, D835Y); test: FLT3 kinase radiometric HotSpot assay, FLT3 (D835Y); type: biochemical
Procedure: as §1

HEK293 cytotoxicity = type: cell-based; conditions: human, HEK293 cells
Procedure: as §1

[1] = MOLM-13 cells, read-out: MOLM-13, CC50
[2] = 72 h, MV4-11 cells, 3 days, CellTiter-Glo

recombinant HPK1 protein, sequence (Q92918 whole entry): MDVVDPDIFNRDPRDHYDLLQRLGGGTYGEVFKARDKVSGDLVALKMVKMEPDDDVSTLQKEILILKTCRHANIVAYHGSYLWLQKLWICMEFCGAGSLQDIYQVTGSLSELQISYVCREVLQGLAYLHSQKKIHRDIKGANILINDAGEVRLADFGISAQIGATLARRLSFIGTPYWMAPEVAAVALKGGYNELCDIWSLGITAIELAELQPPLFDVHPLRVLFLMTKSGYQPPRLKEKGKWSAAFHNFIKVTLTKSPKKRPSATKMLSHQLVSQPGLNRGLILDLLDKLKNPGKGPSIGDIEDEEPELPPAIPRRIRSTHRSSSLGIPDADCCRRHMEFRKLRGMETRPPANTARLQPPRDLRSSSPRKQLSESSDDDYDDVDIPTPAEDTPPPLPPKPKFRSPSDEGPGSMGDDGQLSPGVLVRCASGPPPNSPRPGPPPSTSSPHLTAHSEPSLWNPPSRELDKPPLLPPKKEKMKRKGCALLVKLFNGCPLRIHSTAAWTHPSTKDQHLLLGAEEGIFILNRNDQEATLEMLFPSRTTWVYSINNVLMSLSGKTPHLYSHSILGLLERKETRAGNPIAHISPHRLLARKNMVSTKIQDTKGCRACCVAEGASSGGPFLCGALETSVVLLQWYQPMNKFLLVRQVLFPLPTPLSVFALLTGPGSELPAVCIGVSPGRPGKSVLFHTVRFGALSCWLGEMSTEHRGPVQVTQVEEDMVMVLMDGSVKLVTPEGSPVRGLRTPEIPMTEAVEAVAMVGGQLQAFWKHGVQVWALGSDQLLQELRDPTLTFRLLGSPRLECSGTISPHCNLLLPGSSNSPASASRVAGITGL

SMILES	Ki (recombinant HPK1 protein) [nM]	CC50 (MOLM-13; [1]) [nM]	CC50 (MV4-11 cell lines; [2]) [nM]	Ki (FLT3 (wt)) [nM]	Ki (FLT3 (D835Y)) [nM]	also measured
COc1ccc2ncc3c(-c4cccc(N5CCC(N(C)C)CC5)c4)nn(-c4ccc(C)c(C)c4)c3c2c1 [Compound 1.1, 1-{3-[1-(3,4-dimethylphenyl)-8-methoxy-1H-pyrazolo[4,3-c]quinolin-3-yl]phenyl}-N,N-dimethylpiperidin-4-amine]	10 to 20	1000 to 5000	> 500	–	–	–
COc1ccc2ncc3c(-c4cccc(N5CCN(C)CC5)c4)nn(-c4ccc(C)c(C)c4)c3c2c1 [Compound 1.3, 1-{3-[1-(3,4-dimethylphenyl)-8-methoxy-1H-pyrazolo[4,3-c]quinolin-3-yl]phenyl}-4-methylpiperazine]	10 to 20	> 5000	100 to 500	–	–	–
COc1ccc2ncc3c(-c4cccc(N5CCC(N(C)C)CC5)c4)nn(-c4cccc(C)c4C)c3c2c1 [Compound 1.14, 1-{3-[1-(2,3-dimethylphenyl)-8-methoxy-1H-pyrazolo[4,3-c]quinolin-3-yl]phenyl}-N,N-dimethylpiperidin-4-amine]	< 10	–	> 500	–	–	–
COc1ccc2ncc3c(-c4ccc(N5CCN(C)CC5)cc4)nn(-c4ccc(C)c(C)c4)c3c2c1 [Compound 1.16, 1-{4-[1-(3,4-dimethylphenyl)-8-methoxy-1H-pyrazolo[4,3-c]quinolin-3-yl]phenyl}-4-methylpiperazine]	10 to 20	< 500	50 to 100	–	–	–
COc1ccc2ncc3c(-c4ccc(N5CCC(N(C)C)CC5)cc4)nn(-c4ccc(C)c(C)c4)c3c2c1 [Compound 1.17, 1-{4-[1-(3,4-dimethylphenyl)-8-methoxy-1H-pyrazolo[4,3-c]quinolin-3-yl]phenyl}-N,N-dimethylpiperidin-4-amine]	10 to 20	–	50 to 100	–	–	–
COc1ccc2ncc3c(-c4ccc(OCCN(C)C)c(OC)c4)nn(-c4ccc(C)c(C)c4)c3c2c1 [Compound 1.24, (2-{4-[1-(3,4-dimethylphenyl)-8-methoxy-1H-pyrazolo[4,3-c]quinolin-3-yl]-2-methoxyphenoxy}ethyl)dimethylamine]	10 to 20	–	–	–	–	CC50 (MOLM-13; MOLM-13, read-out: MOLM-13, CC50): < 500 nM; CC50 (MV4-11 cell lines; MV4-11, 72 h): < 50 nM
COc1ccc(-c2nn(-c3ccc4c(c3)CNCC4)c3c2cnc2ccccc23)cc1OC [Compound 1.31, 7-[3-(3,4-dimethoxyphenyl)-1H-pyrazolo[4,3-c]quinolin-1-yl]-1,2,3,4-tetrahydroisoquinoline]	–	–	–	< 0.5	< 0.5	Ki (FLT3 (ITD)): 0.5 to 2 nM; CC50 (HEK293 cytotoxicity): < 10000 nM
COc1ccc(-c2nn(-c3ccc4c(c3)CCNC4)c3c2cnc2ccccc23)cc1OC [Compound 1.32, 6-[3-(3,4-dimethoxyphenyl)-1H-pyrazolo[4,3-c]quinolin-1-yl]-1,2,3,4-tetrahydroisoquinoline]	–	–	–	0.5 to 2	0.5 to 2	Ki (FLT3 (ITD)): > 5 nM; CC50 (HEK293 cytotoxicity): 10000 to 50000 nM
COc1ccc(-c2nn(-c3ccc4c(c3)CNC4)c3c2cnc2ccccc23)cc1OC [Compound 1.33, 5-[3-(3,4-dimethoxyphenyl)-1H-pyrazolo[4,3-c]quinolin-1-yl]-2,3-dihydro-1H-isoindole]	–	–	–	0.5 to 2	< 0.5	Ki (FLT3 (ITD)): 2 to 5 nM; CC50 (HEK293 cytotoxicity): ≥ 50000 nM
COc1ccc2ncc3c(-c4ccc(OC)c(OC)c4)nn(-c4ccc5c(c4)CNCC5)c3c2c1 [Compound 1.34, 7-[3-(3,4-dimethoxyphenyl)-8-methoxy-1H-pyrazolo[4,3-c]quinolin-1-yl]-1,2,3,4-tetrahydroisoquinoline]	–	–	–	< 0.5	< 0.5	Ki (FLT3 (ITD); read-out: Ki, nM FLT3 (ITD)): < 0.5 nM

Continued, in another order:

Ki (recombinant HPK1 protein) [nM]	SMILES	CC50 (MOLM-13; [1]) [nM]	CC50 (MV4-11 cell lines; [2]) [nM]	Ki (FLT3 (wt)) [nM]	Ki (FLT3 (D835Y)) [nM]	also measured
20 to 50	COc1ccc2ncc3c(-c4ccc(N(C)CCCN(C)C)cc4)nn(-c4ccc(C)c(C)c4)c3c2c1 [Compound 1.18, N-[3-(dimethylamino)propyl]-4-[1-(3,4-dimethylphenyl)-8-methoxy-1H-pyrazolo[4,3-c]quinolin-3-yl]-N-methylaniline]	> 5000	100 to 500	–	–	–
≥ 50	Cc1ccc(-n2nc(-c3ccc(N4CCN(C)CC4)cc3)c3cnc4ccccc4c32)cc1C [Compound 1.21, 1-{4-[1-(3,4-dimethylphenyl)-1H-pyrazolo[4,3-c]quinolin-3-yl]phenyl}-4-methylpiperazine]	1000 to 5000	100 to 500	–	–	–
≥ 50	Cc1ccc(-n2nc(-c3ccc(N4CCNCC4)cc3)c3cnc4ccccc4c32)cc1C [Compound 1.22, 1-{4-[1-(3,4-dimethylphenyl)-1H-pyrazolo[4,3-c]quinolin-3-yl]phenyl}piperazine]	1000 to 5000	100 to 500	–	–	–
20 to 50	COc1ccc2ncc3c(-c4ccc(OCCN5CCOCC5)c(OC)c4)nn(-c4ccc(C)c(C)c4)c3c2c1 [Compound 1.25, 4-(2-{4-[1-(3,4-dimethylphenyl)-8-methoxy-1H-pyrazolo[4,3-c]quinolin-3-yl]-2-methoxyphenoxy}ethyl)morpholine]	1000 to 5000	100 to 500	–	–	–
20 to 50	COc1ccc2ncc3c(-c4ccc(OCCCN5CCOCC5)c(OC)c4)nn(-c4ccc(C)c(C)c4)c3c2c1 [Compound 1.26, 4-(3-{4-[1-(3,4-dimethylphenyl)-8-methoxy-1H-pyrazolo[4,3-c]quinolin-3-yl]-2-methoxyphenoxy}propyl)morpholine]	500 to 1000	50 to 100	–	–	–
< 10	COc1ccc2ncc3c(-c4ccc(OC)c(OC)c4)nn(-c4ccc5c(c4)CCNC5)c3c2c1 [Compound 1.35, 6-[3-(3,4-dimethoxyphenyl)-8-methoxy-1H-pyrazolo[4,3-c]quinolin-1-yl]-1,2,3,4-tetrahydroisoquinoline]	–	–	< 0.5	< 0.5	Ki (FLT3 (ITD); read-out: Ki, nM FLT3 (ITD)): 0.5 to 2 nM; CC50 (HEK293 cytotoxicity): < 10000 nM
< 10	COc1ccc2ncc3c(-c4ccc(OC)c(OC)c4)nn(-c4ccc5c(c4)CNC5)c3c2c1 [Compound 1.36, 5-[3-(3,4-dimethoxyphenyl)-8-methoxy-1H-pyrazolo[4,3-c]quinolin-1-yl]-2,3-dihydro-1H-isoindole]	–	–	< 0.5	< 0.5	Ki (FLT3 (ITD); read-out: Ki, nM FLT3 (ITD)): 0.5 to 2 nM; CC50 (HEK293 cytotoxicity): < 10000 nM
